Laboratory results: the kinase profiling compilation of Christmann-Franck et al. (2016)

Experiments:
Experiment in all cases: KINOMEscan competition binding
Settings in all cases: compound 2.0 µM
[1] = tested on: EGFR (human), P00533 [P753S; 747-752 del]
[2] = tested on: KIT (human), P10721 [D816H]
[3] = biological target: PTK2B (human) (UniProt Q14289)
[4] = biological target: ACVR2B (human) (UniProt Q13705)
[5] = biological target: ICK (human) (UniProt Q9UPZ9)
[6] = biological target: TGFBR1 (human) (UniProt P36897)
[7] = biological target: INSR (human) (UniProt P06213)
[8] = biological target: ACVR1 (human) (UniProt Q04771)
[9] = biological target: CAMKK1 (human) (UniProt Q8N5S9)
[10] = biological target: NUAK1 (human) (UniProt O60285)
[11] = biological target: RPS6KA2 KD1 (human) (UniProt Q15349)
[12] = biological target: STK32C (human) (UniProt Q86UX6)
[13] = biological target: BMX (human) (UniProt P51813)
[14] = tested on: ABL1 (human), P00519 [Y253F]
[15] = biological target: AAK1 (human) (UniProt Q2M2I8)
[16] = tested on: PIK3CA (human), P42336 [M1043I]
[17] = biological target: ADCK3 (human) (UniProt Q8NI60)
[18] = biological target: NEK5 (human) (UniProt Q6P3R8)
[19] = biological target: RPS6KB1 (human) (UniProt P23443)
[20] = biological target: ERBB4 (human) (UniProt Q15303)
[21] = biological target: ITK (human) (UniProt Q08881)
[22] = biological target: PLK1 (human) (UniProt P53350)
[23] = biological target: FES (human) (UniProt P07332)
[24] = biological target: CSNK1G1 (human) (UniProt Q9HCP0)
[25] = biological target: STK38 (human) (UniProt Q15208)
[26] = biological target: HIPK2 (human) (UniProt Q9H2X6)
[27] = biological target: RIPK1 (human) (UniProt Q13546)
[28] = biological target: TEC (human) (UniProt P42680)
[29] = biological target: NLK (human) (UniProt Q9UBE8)
[30] = biological target: CIT (human) (UniProt O14578)
[31] = biological target: PIM1 (human) (UniProt P11309)
[32] = biological target: MAPK7 (human) (UniProt Q13164)
[33] = biological target: CDK4 CCND1 (human) (UniProt P11802+P24385)
[34] = biological target: MAP3K11 (human) (UniProt Q16584)
[35] = tested on: RET (human), P07949 [M918T]
[36] = biological target: STK25 (human) (UniProt O00506)
[37] = biological target: BRSK1 (human) (UniProt Q8TDC3)
[38] = biological target: MAPK15 (human) (UniProt Q8TD08)
[39] = biological target: NIM1 (human) (UniProt Q8IY84)
[40] = biological target: MAP3K12 (human) (UniProt Q12852)
[41] = biological target: SNRK (human) (UniProt Q9NRH2)
[42] = biological target: CLK1 (human) (UniProt P49759)
[43] = biological target: MAP2K4 (human) (UniProt P45985)

STK32C (human), sequence (Q86UX6 whole entry, looked up): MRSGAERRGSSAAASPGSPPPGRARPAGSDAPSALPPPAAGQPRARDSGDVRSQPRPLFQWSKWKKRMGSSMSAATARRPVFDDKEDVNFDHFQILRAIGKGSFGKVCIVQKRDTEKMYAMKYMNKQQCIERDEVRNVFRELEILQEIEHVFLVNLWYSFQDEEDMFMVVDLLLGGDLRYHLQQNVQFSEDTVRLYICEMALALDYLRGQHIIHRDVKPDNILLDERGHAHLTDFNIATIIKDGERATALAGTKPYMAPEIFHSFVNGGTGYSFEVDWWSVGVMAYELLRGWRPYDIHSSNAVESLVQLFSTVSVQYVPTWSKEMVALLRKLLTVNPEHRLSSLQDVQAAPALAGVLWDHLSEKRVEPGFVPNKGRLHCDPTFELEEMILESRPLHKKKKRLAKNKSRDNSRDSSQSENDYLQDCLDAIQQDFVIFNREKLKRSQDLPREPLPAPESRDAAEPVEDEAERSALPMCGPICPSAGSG
NLK (human), sequence (Q9UBE8 whole entry, looked up): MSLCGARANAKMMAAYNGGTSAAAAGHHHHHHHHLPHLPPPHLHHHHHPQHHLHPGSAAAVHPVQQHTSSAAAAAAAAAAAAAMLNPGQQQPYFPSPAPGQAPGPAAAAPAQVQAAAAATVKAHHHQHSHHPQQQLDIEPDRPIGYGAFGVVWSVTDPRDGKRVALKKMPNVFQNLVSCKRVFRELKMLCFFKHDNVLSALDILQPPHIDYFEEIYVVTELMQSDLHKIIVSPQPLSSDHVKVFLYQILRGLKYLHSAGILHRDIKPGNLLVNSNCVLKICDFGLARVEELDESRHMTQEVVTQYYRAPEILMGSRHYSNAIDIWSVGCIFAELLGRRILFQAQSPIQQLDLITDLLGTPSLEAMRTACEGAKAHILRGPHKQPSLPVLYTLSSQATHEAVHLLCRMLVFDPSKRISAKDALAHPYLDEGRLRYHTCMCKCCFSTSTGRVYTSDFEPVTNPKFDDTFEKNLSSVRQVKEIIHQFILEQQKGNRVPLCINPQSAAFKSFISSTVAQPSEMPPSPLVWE
PTK2B (human), sequence (Q14289 whole entry, looked up): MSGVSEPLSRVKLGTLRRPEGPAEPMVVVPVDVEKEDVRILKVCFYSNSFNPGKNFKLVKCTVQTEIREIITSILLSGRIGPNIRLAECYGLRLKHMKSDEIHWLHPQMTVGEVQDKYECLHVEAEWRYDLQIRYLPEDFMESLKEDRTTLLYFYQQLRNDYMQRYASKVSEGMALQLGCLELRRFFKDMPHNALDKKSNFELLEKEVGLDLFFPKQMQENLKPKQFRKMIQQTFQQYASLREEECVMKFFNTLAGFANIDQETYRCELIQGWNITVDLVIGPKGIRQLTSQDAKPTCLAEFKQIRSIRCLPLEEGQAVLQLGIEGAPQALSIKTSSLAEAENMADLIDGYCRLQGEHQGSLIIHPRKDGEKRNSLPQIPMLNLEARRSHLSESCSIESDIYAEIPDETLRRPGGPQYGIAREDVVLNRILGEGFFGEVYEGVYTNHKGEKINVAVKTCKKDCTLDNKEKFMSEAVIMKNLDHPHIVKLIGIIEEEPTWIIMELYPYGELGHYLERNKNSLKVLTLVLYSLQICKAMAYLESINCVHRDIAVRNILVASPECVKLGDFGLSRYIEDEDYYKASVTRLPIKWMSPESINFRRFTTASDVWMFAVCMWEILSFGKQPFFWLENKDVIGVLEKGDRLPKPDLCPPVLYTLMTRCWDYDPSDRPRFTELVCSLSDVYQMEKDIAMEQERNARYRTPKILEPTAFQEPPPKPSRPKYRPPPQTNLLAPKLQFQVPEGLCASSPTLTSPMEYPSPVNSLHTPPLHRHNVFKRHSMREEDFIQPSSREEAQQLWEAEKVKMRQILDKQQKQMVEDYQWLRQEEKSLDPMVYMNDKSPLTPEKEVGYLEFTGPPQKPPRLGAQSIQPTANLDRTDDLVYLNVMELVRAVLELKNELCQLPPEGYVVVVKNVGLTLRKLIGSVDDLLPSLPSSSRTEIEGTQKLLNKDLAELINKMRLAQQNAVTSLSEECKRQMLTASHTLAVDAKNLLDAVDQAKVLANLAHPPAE
NEK5 (human), sequence (Q6P3R8 whole entry, looked up): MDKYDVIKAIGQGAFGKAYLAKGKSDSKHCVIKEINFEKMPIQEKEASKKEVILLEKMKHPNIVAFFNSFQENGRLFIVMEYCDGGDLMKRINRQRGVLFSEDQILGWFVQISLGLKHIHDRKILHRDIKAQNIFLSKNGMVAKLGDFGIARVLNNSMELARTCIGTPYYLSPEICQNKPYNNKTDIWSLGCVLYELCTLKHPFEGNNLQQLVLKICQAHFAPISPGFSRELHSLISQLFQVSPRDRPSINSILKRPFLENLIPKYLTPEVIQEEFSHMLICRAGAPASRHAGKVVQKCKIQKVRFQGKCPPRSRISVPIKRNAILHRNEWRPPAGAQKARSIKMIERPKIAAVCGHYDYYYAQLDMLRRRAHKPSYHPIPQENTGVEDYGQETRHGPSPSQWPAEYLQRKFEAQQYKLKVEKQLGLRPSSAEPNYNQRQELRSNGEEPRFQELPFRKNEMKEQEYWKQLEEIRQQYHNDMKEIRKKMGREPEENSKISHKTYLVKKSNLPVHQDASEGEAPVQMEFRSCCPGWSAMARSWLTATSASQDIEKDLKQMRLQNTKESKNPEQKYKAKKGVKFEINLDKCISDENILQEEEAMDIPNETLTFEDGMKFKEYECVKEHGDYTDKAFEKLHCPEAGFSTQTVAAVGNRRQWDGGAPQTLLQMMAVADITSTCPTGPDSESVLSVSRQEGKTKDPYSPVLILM
RET (human), P07949 [M918T], sequence (P07949 whole entry M918T, looked up): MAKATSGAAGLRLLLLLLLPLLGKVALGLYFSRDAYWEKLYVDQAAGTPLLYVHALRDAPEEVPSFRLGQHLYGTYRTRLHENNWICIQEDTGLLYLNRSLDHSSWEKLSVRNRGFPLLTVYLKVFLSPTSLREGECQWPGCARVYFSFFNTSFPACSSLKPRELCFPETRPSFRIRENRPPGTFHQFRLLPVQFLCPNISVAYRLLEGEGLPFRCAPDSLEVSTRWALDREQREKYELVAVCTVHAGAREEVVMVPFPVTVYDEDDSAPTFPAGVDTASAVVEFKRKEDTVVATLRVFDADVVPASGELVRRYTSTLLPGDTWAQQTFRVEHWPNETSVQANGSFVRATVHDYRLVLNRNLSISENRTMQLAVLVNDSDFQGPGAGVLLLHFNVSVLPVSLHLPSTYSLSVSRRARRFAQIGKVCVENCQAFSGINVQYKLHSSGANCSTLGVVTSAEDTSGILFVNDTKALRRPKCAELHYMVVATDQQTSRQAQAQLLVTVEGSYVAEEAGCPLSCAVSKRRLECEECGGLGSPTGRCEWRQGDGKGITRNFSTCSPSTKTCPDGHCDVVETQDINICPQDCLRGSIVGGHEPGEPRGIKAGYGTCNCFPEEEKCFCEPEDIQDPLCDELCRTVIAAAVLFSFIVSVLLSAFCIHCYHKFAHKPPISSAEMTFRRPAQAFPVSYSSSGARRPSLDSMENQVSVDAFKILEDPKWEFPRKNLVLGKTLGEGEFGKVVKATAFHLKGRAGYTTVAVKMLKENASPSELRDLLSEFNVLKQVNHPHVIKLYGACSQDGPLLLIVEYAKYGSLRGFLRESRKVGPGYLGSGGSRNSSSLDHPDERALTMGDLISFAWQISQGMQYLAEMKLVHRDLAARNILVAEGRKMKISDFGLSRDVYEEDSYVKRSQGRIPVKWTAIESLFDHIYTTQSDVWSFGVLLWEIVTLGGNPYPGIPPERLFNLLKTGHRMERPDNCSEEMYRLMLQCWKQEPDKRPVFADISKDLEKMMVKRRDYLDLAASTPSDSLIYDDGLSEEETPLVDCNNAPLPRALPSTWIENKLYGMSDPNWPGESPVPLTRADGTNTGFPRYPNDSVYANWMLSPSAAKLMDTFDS
PIM1 (human), sequence (P11309 whole entry, looked up): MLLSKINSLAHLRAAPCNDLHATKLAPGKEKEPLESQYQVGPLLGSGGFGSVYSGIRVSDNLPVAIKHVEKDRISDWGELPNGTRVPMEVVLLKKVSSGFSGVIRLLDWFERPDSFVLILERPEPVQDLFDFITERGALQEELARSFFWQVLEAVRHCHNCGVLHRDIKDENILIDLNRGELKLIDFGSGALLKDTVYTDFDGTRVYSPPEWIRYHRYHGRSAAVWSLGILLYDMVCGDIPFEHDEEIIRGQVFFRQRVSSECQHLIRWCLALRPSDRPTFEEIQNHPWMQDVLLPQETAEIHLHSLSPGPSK
ADCK3 (human), sequence (Q8NI60 whole entry, looked up): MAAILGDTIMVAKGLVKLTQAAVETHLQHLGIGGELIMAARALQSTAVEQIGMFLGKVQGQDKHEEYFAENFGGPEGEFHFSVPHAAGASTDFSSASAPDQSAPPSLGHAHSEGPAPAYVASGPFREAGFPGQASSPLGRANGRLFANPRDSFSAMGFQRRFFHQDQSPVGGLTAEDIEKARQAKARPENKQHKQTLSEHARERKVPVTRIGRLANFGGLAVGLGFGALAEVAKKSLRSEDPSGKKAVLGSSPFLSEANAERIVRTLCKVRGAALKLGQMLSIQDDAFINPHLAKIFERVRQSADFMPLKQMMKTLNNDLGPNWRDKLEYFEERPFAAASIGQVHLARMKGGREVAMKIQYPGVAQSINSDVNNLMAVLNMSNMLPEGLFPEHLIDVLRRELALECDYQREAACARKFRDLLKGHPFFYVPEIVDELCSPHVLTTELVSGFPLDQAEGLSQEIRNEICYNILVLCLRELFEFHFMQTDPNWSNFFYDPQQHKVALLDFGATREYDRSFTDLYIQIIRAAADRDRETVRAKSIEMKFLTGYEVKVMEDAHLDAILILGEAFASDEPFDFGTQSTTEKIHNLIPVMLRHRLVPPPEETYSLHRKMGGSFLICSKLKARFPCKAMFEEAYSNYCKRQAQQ

What does the source list for `N#Cc1ccc2ncnc(NCCc3ccc4ccccc4c3)c2c1`?
kinase still bound, per cent of control [1]: 89%; kinase still bound, per cent of control [2]: 100%; kinase still bound, per cent of control [3]: 85%; kinase still bound, per cent of control [4]: 89%; kinase still bound, per cent of control [5]: 100%; kinase still bound, per cent of control [6]: 100%; kinase still bound, per cent of control [7]: 100%; kinase still bound, per cent of control [8]: 100%; kinase still bound, per cent of control [9]: 97%; kinase still bound, per cent of control [10]: 75%; kinase still bound, per cent of control [11]: 100%; kinase still bound, per cent of control [12]: 100%; kinase still bound, per cent of control [13]: 97%; kinase still bound, per cent of control [14]: 100%; kinase still bound, per cent of control [15]: 86%; kinase still bound, per cent of control [16]: 93%; kinase still bound, per cent of control [17]: 100%; kinase still bound, per cent of control [18]: 70%; kinase still bound, per cent of control [19]: 97%; kinase still bound, per cent of control [20]: 98%; kinase still bound, per cent of control [21]: 80%; kinase still bound, per cent of control [22]: 88%; kinase still bound, per cent of control [23]: 100%; kinase still bound, per cent of control [24]: 83%; kinase still bound, per cent of control [25]: 100%; kinase still bound, per cent of control [26]: 87%; kinase still bound, per cent of control [27]: 85%; kinase still bound, per cent of control [28]: 100%; kinase still bound, per cent of control [29]: 85%; kinase still bound, per cent of control [30]: 91%; kinase still bound, per cent of control [31]: 95%; kinase still bound, per cent of control [32]: 93%; kinase still bound, per cent of control [33]: 100%; kinase still bound, per cent of control [34]: 89%; kinase still bound, per cent of control [35]: 89%; kinase still bound, per cent of control [36]: 100%; kinase still bound, per cent of control [37]: 100%; kinase still bound, per cent of control [38]: 84%; kinase still bound, per cent of control [39]: 82%; kinase still bound, per cent of control [40]: 100%; kinase still bound, per cent of control [41]: 36%; kinase still bound, per cent of control [42]: 56%; kinase still bound, per cent of control [43]: 89%
